In ChEMBL document CHEMBL4725351, “Cyclic Derivative of Host-Defense Peptide IDR-1018 Improves Proteolytic Stability, Suppresses Inflammation, and Enhances In Vivo Activity” (J Med Chem, 2020):
Calls of active or inactive are those of the source. The calls are words filed in the database; no cut-off is given here. Where a SMILES comes first, the peptide text is derived from it. Bridges are numbered along the chain shown (N, C = ends).

What was measured:
Staphylococcus aureus [1] = test: Antibiofilm activity against 24 hrs preformed methicillin-resistant Staphylococcus aureus SAP0017 biofilm assessed as reduction in biofilm viability at 7.2 to 30.3 uM by TTC assay relative to control; format: functional; details: dose microM 7.2-30.3
Staphylococcus aureus [2] = test: Antibiofilm activity against 24 hrs preformed methicillin-resistant Staphylococcus aureus USA300 LAC biofilm assessed as reduction in biofilm viability at 7.2 to 30.3 uM by TTC assay relative to control; format: functional; details: dose microM 7.2-30.3
Staphylococcus aureus [3] = test: Antibiofilm activity against 24 hrs preformed methicillin-resistant Staphylococcus aureus USA300 LAC biofilm assessed as reduction in biofilm viability at 100 ug/ml by TTC assay; format: functional, organism-based; details: dose 100.0 µg/ml
Staphylococcus aureus [4] = test: Antibiofilm activity against 24 hrs preformed methicillin-resistant Staphylococcus aureus SAP0017 biofilm assessed as reduction in biofilm viability at 100 ug/ml by TTC assay; format: functional, organism-based; details: dose 100.0 µg/ml

H-VRLIVAVRIWRR-NH2
Activity (Staphylococcus aureus [1]): 70%
Activity (Staphylococcus aureus [2]): 70%

CN[C@H](CC(C)C)C(=O)N[C@H]1C(=O)N[C@@H](CC(N)=O)C(=O)N[C@H]2C(=O)N[C@H]3C(=O)N[C@H](C(=O)N[C@H](C(=O)O)c4cc(O)cc(O)c4-c4cc3ccc4O)[C@H](O)c3ccc(c(Cl)c3)Oc3cc2cc(c3O[C@@H]2O[C@H](CO)[C@@H](O)[C@H](O)[C@H]2O[C@H]2C[C@](C)(N)[C@H](O)[C@H](C)O2)Oc2ccc(cc2Cl)[C@H]1O [VANCOMYCIN]
Activity (Staphylococcus aureus [3]): inactive
Activity (Staphylococcus aureus [4]): inactive

CC[C@H](C)[C@@H]1NC(=O)[C@H](CCCNC(=N)N)NC(=O)[C@H](C(C)C)NC(=O)[C@H](C)NC(=O)[C@H](C(C)C)NC(=O)[C@H]([C@@H](C)CC)NC(=O)[C@H](CC(C)C)NC(=O)[C@H](CCCNC(=N)N)NC(=O)[C@H](C(C)C)NC(=O)CC[C@@H](C(N)=O)NC(=O)[C@H](CCCNC(=N)N)NC(=O)[C@H](CCCNC(=N)N)NC(=O)[C@H](Cc2c[nH]c3ccccc23)NC1=O (VRLIVAVRIWRRE-NH2; lactam N-13)
Activity (Staphylococcus aureus [1]): 70%
Activity (Staphylococcus aureus [2]): 70%
